Measured values as given in patent US20030134842A1, “METHODS FOR THE TREATMENT OR PREVENTION OF INFLAMMATORY DISEASES CHARACTERIZED BY ABNORMAL CELL PROLIFERATION” (priority 1997, published 2003).
pIC50: −log10 of the molar value. Like-named read-outs stand apart in the source and are kept apart here.

Assays:
Assay type in all cases: cell-based
[1] = system: NIH 3T3 mouse fibroblast cells; experiment: Mitogenic assay (mitogen-induced cell proliferation); conditions: for pIC50: mitogen-induced cell proliferation
[2] = target: T1, Ca2+-activated potassium channel (Gardos channel) of erythrocytes (Homo sapiens, UniProt O15554); experiment: Gardos channel assay; conditions: for inhibition at 10 µM: 10 μM compound
T1 construct: endogenous in cells; host or cells: erythrocytes
T1 sequence (O15554 whole entry): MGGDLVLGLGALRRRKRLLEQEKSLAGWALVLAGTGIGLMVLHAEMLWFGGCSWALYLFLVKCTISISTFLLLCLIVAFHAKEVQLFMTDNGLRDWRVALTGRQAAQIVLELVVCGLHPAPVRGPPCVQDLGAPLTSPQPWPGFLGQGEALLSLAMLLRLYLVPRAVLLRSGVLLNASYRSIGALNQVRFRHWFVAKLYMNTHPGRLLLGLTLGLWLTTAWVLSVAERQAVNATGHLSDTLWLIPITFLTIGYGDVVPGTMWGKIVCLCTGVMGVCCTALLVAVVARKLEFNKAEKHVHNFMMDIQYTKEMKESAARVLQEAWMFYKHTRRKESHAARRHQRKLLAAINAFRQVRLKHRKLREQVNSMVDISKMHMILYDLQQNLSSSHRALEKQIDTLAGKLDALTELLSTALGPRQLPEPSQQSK

HeLa = experiment: SRB antiproliferative assay HeLa; conditions: Homo sapiens; HeLa (Cervical), 5% FCS/5 day incubation; read-out: Test Compound IC50
Description: (§1) The cells were passaged using Trypsin (Gibco).

CaSki = experiment: SRB antiproliferative assay CaSki; conditions: Homo sapiens, Ca-Ski; CaSki (Cervical), 5% FCS/5 day incubation; read-out: Test Compound IC50
Description: as §1

MDA-MB-23 = experiment: SRB antiproliferative assay MDA-MB-23
Description: as §1

MCF7 = experiment: SRB antiproliferative assay MCF7; conditions: Homo sapiens
Description: as §1

A549 = experiment: SRB antiproliferative assay A549; conditions: Homo sapiens
Description: as §1

HTB174 = experiment: SRB antiproliferative assay HTB174; conditions: HTB174 (Lung), 5% FCS/5 day incubation; read-out: Test Compound IC50
Description: as §1

HEPG2 = experiment: SRB antiproliferative assay HEPG2; conditions: Homo sapiens
Description: as §1

DU-145 = experiment: SRB antiproliferative assay DU-145; conditions: Homo sapiens; DU-145 (Prostate), 5% FCS/5 day incubation; read-out: Test Compound IC50
Description: as §1

SK-MEL-28 = experiment: SRB antiproliferative assay SK-MEL-28; conditions: Homo sapiens; SK-MEL-28 (Melanoma), 5% FCS/5 day incubation; read-out: Test Compound IC50
Description: as §1

MMRU = experiment: SRB antiproliferative assay MMRU; conditions: Homo sapiens
Description: as §1

HT29 = experiment: SRB antiproliferative assay HT29; conditions: Homo sapiens
Description: as §1

HCT-15 = experiment: SRB antiproliferative assay HCT-15; conditions: Homo sapiens; HCT-15 (Colon), 5% FCS/5 day incubation; read-out: Test Compound IC50
Description: as §1

ACHN = experiment: SRB antiproliferative assay ACHN; conditions: Homo sapiens; ACHN (Renal), 5% FCS/5 day incubation; read-out: Test Compound IC50
Description: as §1

U118MG = experiment: SRB antiproliferative assay U118MG; conditions: Homo sapiens, U-118-MG
Description: as §1

SK-OV-3 = experiment: SRB antiproliferative assay SK-OV-3; conditions: Homo sapiens; SK-OV-3 (Ovary), 5% FCS/5 day incubation; read-out: Test Compound IC50
Description: as §1

HUVEC = experiment: SRB assay normal cells HUVEC; conditions: HUVEC (Normal human), 5% FCS/5 day incubation; read-out: Test Compound IC50
Description: as §1

GM = experiment: SRB assay normal cells GM; conditions: GM (Normal human), 5% FCS/5 day incubation; read-out: Test Compound IC50
Description: as §1

3T3 = experiment: SRB assay normal cells 3T3; conditions: NIH3T3; 3T3 (Normal mouse), 5% FCS/5 day incubation; read-out: Test Compound IC50
Description: as §1

L929 = experiment: SRB assay normal cells L929; conditions: L929 (Normal mouse), 5% FCS/5 day incubation; read-out: Test Compound IC50
Description: as §1

[3] = Mus musculus, NIH3T3, NIH 3T3 mouse fibroblast cells
[4] = MDA-MB-23 (Breast), 5% FCS/5 day incubation, read-out: Test Compound IC50
[5] = MCF7 (Breast), 5% FCS/5 day incubation, read-out: Test Compound IC50
[6] = MCF7, 5% FCS/3 days, read-out: Test Compound IC50 Value in Cell Lines
[7] = A549, A549 (Lung), 5% FCS/5 day incubation, read-out: Test Compound IC50
[8] = A549, A549, 5% FCS/3 days, read-out: Test Compound IC50 Value in Cell Lines
[9] = HEPG2 (Hepatocel), 5% FCS/5 day incubation, read-out: Test Compound IC50
[10] = HEPG2, 5% FCS/3 days, read-out: Test Compound IC50 Value in Cell Lines
[11] = MMRU (Melanoma), 5% FCS/5 day incubation, read-out: Test Compound IC50
[12] = MMRU, 5% FCS/3 days, read-out: Test Compound IC50 Value in Cell Lines
[13] = HT-29, HT29 (Colon), 5% FCS/5 day incubation, read-out: Test Compound IC50
[14] = HT-29, HT29, 5% FCS/3 days, read-out: Test Compound IC50 Value in Cell Lines
[15] = U118MG (CNS), 5% FCS/5 day incubation, read-out: Test Compound IC50
[16] = U118MG, 5% FCS/3 days, read-out: Test Compound IC50 Value in Cell Lines
[17] = MDA-MB-23, read-out: Test Compound IC50
[18] = A549 (Lung), 5% FCS/5 day incubation, read-out: Test Compound IC50

inhibition at 10 µM [2]	pIC50 (HeLa)	pIC50 (MCF7; [5])	pIC50 (MCF7; [6])	pIC50 (HEPG2; [9])	pIC50 (HEPG2; [10])	pIC50 (DU-145)	pIC50 (SK-MEL-28)	pIC50 (HT29; [13])	pIC50 (HT29; [14])	pIC50 (HCT-15)	pIC50 (ACHN)	SMILES	pIC50 (CaSki)	pIC50 (HTB174)	pIC50 (MMRU; [11])	pIC50 (MMRU; [12])	pIC50 (U118MG; [15])	pIC50 (HUVEC)	pIC50 (GM)	pIC50 (L929)	also measured
3%	6.70	6.30	> 5.90	6.40	> 5.90	< 6.00	6.15	6.40	> 5.90	6.40	< 6.00	COc1ccc(C(=O)N2Cc3ccccc3C(c3ccccc3Cl)c3ccccc32)cc1 (stereo not shown) [Compound 27]	6.05	6.52	6.70	> 5.90	6.40	< 6.00	< 6.00	< 6.00	pIC50 [1, 3]: 5.66; pIC50 [2]: < 5.00; pIC50 (MDA-MB-23; [4]): < 6.00; pIC50 (A549; [7]): 5.96; pIC50 (A549; [8]): > 5.90; pIC50 (U118MG; [16]): 5.72; pIC50 (SK-OV-3): < 6.00; pIC50 (3T3): < 6.00
14.6%	6.30	5.89	5.80	6.05	> 5.90	< 6.00	6.22	6.22	> 5.90	6.30	< 6.00	COc1ccc2c(c1)CN(C(=O)c1ccc([N+](=O)[O-])cc1)c1ccc(Cl)cc1C2c1ccccc1Cl (stereo not shown) [Compound 30]	6.15	6.30	6.30	> 5.90	6.10	< 6.00	< 6.00	< 6.00	pIC50 [1, 3]: 6.22; pIC50 [2]: < 5.00; pIC50 (MDA-MB-23; [4]): 6.05; pIC50 (A549; [7]): 5.82; pIC50 (A549; [8]): 5.77; pIC50 (U118MG; [16]): > 5.90; pIC50 (SK-OV-3): < 6.00; pIC50 (3T3): < 6.00
12.3%	6.70	6.15	> 5.90	6.40	> 5.90	6.05	6.52	6.70	> 5.90	6.52	6.10	COc1cccc2c1C(c1ccccc1Cl)c1cc(Cl)ccc1N(C(=O)c1ccc([N+](=O)[O-])cc1)C2 (stereo not shown) [Compound 31]	6.30	6.70	6.70	> 5.90	6.40	6.10	< 6.00	6.05	pIC50 [1, 3]: 6.40; pIC50 [2]: < 5.00; pIC50 (MDA-MB-23; [4]): 6.40; pIC50 (A549; [7]): 6.22; pIC50 (A549; [8]): > 5.90; pIC50 (U118MG; [16]): > 5.90; pIC50 (SK-OV-3): 6.22; pIC50 (3T3): < 6.00

SMILES	inhibition at 10 µM [2]	pIC50 (HeLa)	pIC50 (MCF7; [5])	pIC50 (MCF7; [6])	pIC50 (HEPG2; [9])	pIC50 (HEPG2; [10])	pIC50 (DU-145)	pIC50 (SK-MEL-28)	pIC50 (HT29; [13])	pIC50 (HT29; [14])	pIC50 (HCT-15)	pIC50 (ACHN)	pIC50 (CaSki)	pIC50 (HTB174)	pIC50 (MMRU; [11])	pIC50 (MMRU; [12])	pIC50 (U118MG; [15])	pIC50 (HUVEC)	pIC50 (GM)	pIC50 (L929)	also measured
O=C(c1ccc([N+](=O)[O-])cc1)N1Cc2ccccc2C(c2ccccc2Cl)c2ccccc21 (stereo not shown) [Compound 28, N-(4′-nitrobenzoyl)-11-(2′-chlorophenyl)-5,6-dihydro-11H-dibenz[b,e]azepine]	0%	6.52	6.22	5.68	6.52	> 5.90	6.05	6.40	6.52	> 5.90	6.40	6.15	6.30	7.00	6.70	> 5.90	6.30	6.15	6.05	6.22	Mitogenic Assay Inhibition ([1]; 10 µM compound, NIH 3T3 mouse fibroblast cells): 99.0%; pIC50 ([1]; NIH3T3, NIH 3T3 mouse fibroblast cells): 6.30 to 7.40; pIC50 (MDA-MB-23; [17]): 6.30; pIC50 (A549; [18]): 6.10; pIC50 (A549; A549, 5% FCS/3 days, read-out: Test Compound IC50 Value in Cell Lines): 5.74; pIC50 (U118MG; [16]): 5.89; pIC50 (SK-OV-3): < 6.00; pIC50 (3T3): < 6.00
COc1cc([C@@H]2c3cc4c(cc3[C@@H](O[C@@H]3O[C@@H]5CO[C@@H](C)O[C@H]5[C@H](O)[C@H]3O)[C@H]3COC(=O)[C@H]23)OCO4)cc(OC)c1O [VP-16, Etoposide, reference compound]		> 5.90	> 5.90		> 5.90		> 5.90	> 5.90	> 5.90		5.89	> 5.90	5.74	> 5.90	> 5.90		5.66	> 5.90	5.85	> 5.90	pIC50 (MDA-MB-23; [17]): > 5.90; pIC50 (MCF7; MCF7, 2% FCS/3 days, read-out: Test Compound IC50 Value in Cell Lines): > 5.60; pIC50 (A549; [18]): > 5.90; pIC50 (A549; A549, 2% FCS/3 days, read-out: Test Compound IC50 Value in Cell Lines): 5.64; pIC50 (MMRU; MMRU, 2% FCS/3 days, read-out: Test Compound IC50 Value in Cell Lines): > 5.60; pIC50 (HT29; HT-29, HT29, 2% FCS/3 days, read-out: Test Compound IC50 Value in Cell Lines): 4.70
